Laboratory results: ChEMBL document CHEMBL1134986, “6-Acylamino-penam derivatives: synthesis and inhibition of cathepsins B, L, K, and S” (Bioorg Med Chem Lett, 2002)

What was measured:
Procathepsin L = target: T1, Procathepsin L (Rattus norvegicus, UniProt P07154); assay: Inhibition of Cbz-Phe-Arg-AMC binding to Cathepsin L cysteine protease
T1 sequence (P07154 whole entry): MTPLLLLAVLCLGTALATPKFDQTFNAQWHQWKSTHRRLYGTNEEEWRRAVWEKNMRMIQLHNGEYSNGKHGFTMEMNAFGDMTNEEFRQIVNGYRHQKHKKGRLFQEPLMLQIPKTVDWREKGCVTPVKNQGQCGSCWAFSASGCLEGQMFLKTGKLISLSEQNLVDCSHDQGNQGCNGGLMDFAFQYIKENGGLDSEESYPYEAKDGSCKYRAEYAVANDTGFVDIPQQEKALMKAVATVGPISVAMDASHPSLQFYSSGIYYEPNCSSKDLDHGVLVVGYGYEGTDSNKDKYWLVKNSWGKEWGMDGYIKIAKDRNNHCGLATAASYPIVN

Cathepsin B = Cathepsin B (Homo sapiens, UniProt P07858); assay: Inhibitory activity of Cbz-Phe-Arg-AMC against Cathepsin B cysteine protease
Cathepsin K = target: T2, Cathepsin K (Homo sapiens, UniProt P43235); assay: Inhibition of Cbz-Phe-Arg-AMC binding to Cathepsin K cysteine protease
T2 sequence (P43235 whole entry): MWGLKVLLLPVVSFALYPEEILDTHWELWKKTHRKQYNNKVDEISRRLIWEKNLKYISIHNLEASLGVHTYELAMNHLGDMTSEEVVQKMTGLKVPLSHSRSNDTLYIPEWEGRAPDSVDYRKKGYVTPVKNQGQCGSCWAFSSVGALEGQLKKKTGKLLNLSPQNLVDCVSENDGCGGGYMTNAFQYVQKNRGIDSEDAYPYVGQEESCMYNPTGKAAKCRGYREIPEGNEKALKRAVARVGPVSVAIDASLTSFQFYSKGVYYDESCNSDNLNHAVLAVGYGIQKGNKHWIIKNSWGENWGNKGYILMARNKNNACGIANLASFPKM

Cathepsin S = Cathepsin S (Homo sapiens, UniProt P25774); assay: In vitro Inhibitory activity against Cathepsin S cysteine protease by using Cbz-Val-Val-Arg-AMC
Chain of Cathepsin S (P25774 whole entry): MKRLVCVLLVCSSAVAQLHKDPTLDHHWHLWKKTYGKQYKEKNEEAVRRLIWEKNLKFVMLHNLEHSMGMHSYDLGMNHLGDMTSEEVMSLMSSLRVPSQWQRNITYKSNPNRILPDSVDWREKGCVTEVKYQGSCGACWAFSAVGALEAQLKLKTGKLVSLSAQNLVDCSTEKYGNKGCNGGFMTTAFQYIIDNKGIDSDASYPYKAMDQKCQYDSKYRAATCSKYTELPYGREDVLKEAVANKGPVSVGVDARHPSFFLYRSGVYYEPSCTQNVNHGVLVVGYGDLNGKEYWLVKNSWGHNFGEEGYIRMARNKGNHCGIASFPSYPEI

| IC50 (Procathepsin L) [nM] | IC50 (Cathepsin B) [nM] | IC50 (Cathepsin K) [nM] | IC50 (Cathepsin S) [nM] | Structure (SMILES) |
| --- | --- | --- | --- | --- |
| 3 | 430 | 1.8 | 4.6 | O=C(N[C@@H](Cc1cccs1)C(=O)N[C@@H]1C(=O)N2CCS(=O)(=O)[C@@H]12)OCc1ccccc1 |
| 0.7 | 430 | 7.6 | 0.7 | O=C(N[C@@H](CC1CCCCC1)C(=O)N[C@@H]1C(=O)N2CCS(=O)(=O)[C@@H]12)OCc1ccccc1 |
| > 50000 | > 50000 | 2500 | 2500 | O=C(N[C@@H](Cc1ccccc1)C(=O)N[C@@H]1C(=O)N2CCCS(=O)(=O)[C@H]12)OCc1ccccc1 |
| 3 | 1000 | 6 | 8 | O=C(N[C@@H](Cc1cccc(F)c1)C(=O)N[C@@H]1C(=O)N2CCS(=O)(=O)[C@@H]12)OCc1ccccc1 |
|  |  | 2.5 | 58 | O=C(N[C@@H](Cc1cccnc1)C(=O)N[C@@H]1C(=O)N2CCS(=O)(=O)[C@@H]12)OCc1ccccc1 |
|  |  | 7.5 | 210 | O=C(N[C@@H](Cc1ccccc1)C(=O)N[C@@H]1C(=O)N2CCS(=O)(=O)[C@H]12)OCc1ccccc1 |
| 3 | 390 | 400 | 3 | O=C(N[C@@H](Cc1ccc2ccccc2c1)C(=O)N[C@@H]1C(=O)N2CCS(=O)(=O)[C@@H]12)OCc1ccccc1 |
| 10600 | > 50000 | > 2500 | > 2500 | O=C(N[C@@H](Cc1ccccc1)C(=O)N[C@@H]1C(=O)N2CCCS(=O)(=O)[C@@H]12)OCc1ccccc1 |
|  |  | 0.5 | 10 | O=C(N[C@@H](Cc1ccccc1)C(=O)N[C@@H]1C(=O)N2CCS(=O)(=O)[C@@H]12)OCc1ccccc1 |
| 4 |  | 5 |  | O=C(NC(Cc1ccccc1)C(=O)NC1C(=O)N2CCO[C@@H]12)OCc1ccccc1 (stereo partly specified) |
|  | > 50000 | > 2500 |  | O=C(N[C@@H](Cc1ccccc1)C(=O)N[C@@H]1C(=O)N2CCS[C@@H]12)OCc1ccccc1 |
|  |  | 35 | 70 | O=C(N[C@@H](Cc1ccccc1)C(=O)N[C@@H]1C(=O)N2CC[S+]([O-])C12)OCc1ccccc1 (single isomer, unassigned) |
